The values below come from patent US8735414B2 (priority 2009, dated 2014).

The term melting point denotes the temperature of the solid-liquid transition. As usually defined, the IC50 is the concentration needed to halve the response being measured.

The subject of data set [1] is bicistronic HCV replicon (replicon RNA, GenBank Accession No. AJ242654). Briefly: HCV Replicon Assay. The class given is cell-based. The settings on record: Hepatitis C virus, 72 h, read-out: Replicon IC50.

In turn, `CC(C)NS(=O)(=O)c1cnc(-c2c(C#N)c3cc(Cl)ccc3n2C(C)C)nc1` [compound 120, 2-[5-chloro-3-cyano-1-(propan-2-yl)-1H-indol-2-yl]-N-(propan-2-yl)pyrimidine-5-sulfonamide] returned a melting point of 202 to 220 °C. The IC50 in data set [1] was less than 500 nM.
With `Cc1ccc2c(c1)c(C#N)c(-c1ncc(S(=O)(=O)NC(C)C)cn1)n2C1CCC1` [compound 121, 2-(3-cyano-1-cyclobutyl-5-methyl-1H-indol-2-yl)-N-(propan-2-yl)pyrimidine-5-sulfonamide], the melting point was 134 to 138 °C. For the same compound, the IC50 in data set [1] is less than 500 nM.
Regarding `Cc1ccc2c(c1)c(C#N)c(-c1ncc(S(=O)(=O)NC(CF)CF)cn1)n2C1CCC1` [compound 122, 2-(3-cyano-1-cyclobutyl-5-methyl-1H-indol-2-yl)-N-(1,3-difluoropropan-2-yl)pyrimidine-5-sulfonamide], the melting point fell in the range of 140 to 145 °C. Further, in data set [1], the IC50 is less than 500 nM.
For `CC(C)NS(=O)(=O)c1cnc(-c2c(C#N)c3cc(F)ccc3n2C(C)C)nc1` [compound 123, 2-[3-cyano-5-fluoro-1-(propan-2-yl)-1H-indol-2-yl]-N-(propan-2-yl)pyrimidine-5-sulfonamide], the melting point was in the range of 192 to 197 °C. Besides, in data set [1], the IC50 is less than 500 nM.
`CC(C)NS(=O)(=O)c1cnc(-c2c(C#N)c3ccc(C4CC4)cc3n2CC2CC2)nc1` [compound 124, 2-[3-cyano-6-cyclopropyl-1-(cyclopropylmethyl)-1H-indol-2-yl]-N-(propan-2-yl)pyrimidine-5-sulfonamide]: the melting point was 169 to 174 °C. Also, the half-maximal inhibitory concentration (IC50) in data set [1] was less than 500 nM.
The matching figures for `CC(C)NS(=O)(=O)c1cnc(-c2c(C#N)c3ccc(C4CC4)cc3n2C2CCCC2)nc1` [compound 125, 2-(3-cyano-1-cyclopentyl-6-cyclopropyl-1H-indol-2-yl)-N-(propan-2-yl)pyrimidine-5-sulfonamide]: 211 to 212 °C and less than 500 nM.
Compound `N#Cc1c(-c2ncc(S(=O)(=O)NC(CF)CF)cn2)n(C2CCC2)c2cc(C3CC3)ccc12` [compound 126, 2-(3-cyano-1-cyclobutyl-6-cyclopropyl-1H-indol-2-yl)-N-(1,3-difluoropropan-2-yl)pyrimidine-5-sulfonamide] returned a melting point of 165 to 168 °C. In addition, in data set [1], the IC50 is less than 500 nM.
In turn, `CC(C)NS(=O)(=O)c1cnc(-c2c(C#N)c3ccc(OC(F)F)cc3n2C2CCC2)nc1` [compound 127, 2-[3-cyano-1-cyclobutyl-6-(difluoromethoxy)-1H-indol-2-yl]-N-(propan-2-yl)pyrimidine-5-sulfonamide] displayed a melting point of 192 to 194 °C. Further, in data set [1], the IC50 was less than 500 nM.
On the same counts, the results for `CC(NS(=O)(=O)c1cnc(-c2c(C#N)c3ccc(OC(F)F)cc3n2C2CCC2)nc1)C(F)(F)F` (centres unmarked) [compound 128, 2-[3-cyano-1-cyclobutyl-6-(difluoromethoxy)-1H-indol-2-yl]-N-(1,1,1-trifluoropropan-2-yl)pyrimidine-5-sulfonamide] are 227 to 229 °C and less than 500 nM.
`N#Cc1c(-c2ncc(S(=O)(=O)NC(CF)CF)cn2)n(C2CCC2)c2cc(OC(F)F)ccc12` [compound 129, 2-[3-cyano-1-cyclobutyl-6-(difluoromethoxy)-1H-indol-2-yl]-N-(1,3-difluoropropan-2-yl)pyrimidine-5-sulfonamide] had a melting point of 205 to 207 °C. Moreover, the IC50 in data set [1] was less than 500 nM.
On the same counts, the results for `C[C@H](NS(=O)(=O)c1cnc(-c2c(C#N)c3ccc(OC(F)F)cc3n2C2CCC2)nc1)C1CC1` [compound 130, 2-[3-cyano-1-cyclobutyl-6-(difluoromethoxy)-1H-indol-2-yl]-N-[(1S)-1-cyclopropylethyl]pyrimidine-5-sulfonamide] are 172 to 174 °C and less than 500 nM.
On the same counts, the results for `C[C@H](NS(=O)(=O)c1cnc(-c2c(C#N)c3ccc(C4CC4)cc3n2C2CCC2)nc1)C1CC1` [compound 131, 2-(3-cyano-1-cyclobutyl-6-cyclopropyl-1H-indol-2-yl)-N-[(1S)-1-cyclopropylethyl]pyrimidine-5-sulfonamide] are 165 to 167 °C and less than 500 nM.
For `Cc1ccc2c(C#N)c(-c3ncc(S(=O)(=O)NC(CF)CF)cn3)n(C3CCC3)c2c1` [compound 132, 2-(3-cyano-1-cyclobutyl-6-methyl-1H-indol-2-yl)-N-(1,3-difluoropropan-2-yl)pyrimidine-5-sulfonamide], the melting point is 236 to 238 °C. In addition, the IC50 in data set [1] was less than 500 nM.
The matching figures for `Cc1ccc2c(C#N)c(-c3ncc(S(=O)(=O)NC(CF)CF)cn3)n(CC3CC3)c2c1` [compound 133, 2-[3-cyano-1-(cyclopropylmethyl)-6-methyl-1H-indol-2-yl]-N-(1,3-difluoropropan-2-yl)pyrimidine-5-sulfonamide]: 261 to 262 °C and less than 500 nM.
The matching figures for `Cc1ccc2c(C#N)c(-c3ncc(S(=O)(=O)NC(CF)CF)cn3)n(C(C)C)c2c1` [compound 134, 2-[3-cyano-6-methyl-1-(propan-2-yl)-1H-indol-2-yl]-N-(1,3-difluoropropan-2-yl)pyrimidine-5-sulfonamide]: 213 to 215 °C and less than 500 nM.
Consider `Cc1ccc2c(C#N)c(-c3ncc(S(=O)(=O)NC(CF)CF)cn3)n(C3CCCC3)c2c1` [compound 135, 2-(3-cyano-1-cyclopentyl-6-methyl-1H-indol-2-yl)-N-(1,3-difluoropropan-2-yl)pyrimidine-5-sulfonamide], for which the melting point fell in the range of 229 to 231 °C. The IC50 in data set [1] is less than 500 nM.
As to `N#Cc1c(-c2ncc(S(=O)(=O)NC(CF)CF)cn2)n(CC2CC2)c2cc(OC(F)F)ccc12` [compound 136, 2-[3-cyano-1-(cyclopropylmethyl)-6-(difluoromethoxy)-1H-indol-2-yl]-N-(1,3-difluoropropan-2-yl)pyrimidine-5-sulfonamide], the melting point is 207 to 209 °C. Besides, in data set [1], the IC50 was less than 500 nM.
`CC(C)n1c(-c2ncc(S(=O)(=O)NC(CF)CF)cn2)c(C#N)c2ccc(OC(F)F)cc21` [compound 137, 2-[3-cyano-6-(difluoromethoxy)-1-(propan-2-yl)-1H-indol-2-yl]-N-(1,3-difluoropropan-2-yl)pyrimidine-5-sulfonamide] had a melting point of 219 to 221 °C. The half-inhibitory concentration (IC50) in data set [1] was less than 500 nM.
For the compound `CC(C)NS(=O)(=O)c1cnc(-c2c(C#N)c3ccc(F)cc3n2C2CCC2)nc1` [compound 138, 2-(3-cyano-1-cyclobutyl-6-fluoro-1H-indol-2-yl)-N-(propan-2-yl)pyrimidine-5-sulfonamide], the melting point was 193 to 195 °C. For the same compound, the IC50 in data set [1] fell in the range of 500 to 2000 nM.
`CC(C)NS(=O)(=O)c1cnc(-c2c(C#N)c3ccc(F)cc3n2CC2CC2)nc1` [compound 139, 2-[3-cyano-1-(cyclopropylmethyl)-6-fluoro-1H-indol-2-yl]-N-(propan-2-yl)pyrimidine-5-sulfonamide] registered a melting point of 218 to 219 °C. In data set [1], the IC50 lay in the range of 500 to 2000 nM.
As to `CC(C)NS(=O)(=O)c1cnc(-c2c(C#N)c3ccc(F)cc3n2C(C)C)nc1` [compound 140, 2-[3-cyano-6-fluoro-1-(propan-2-yl)-1H-indol-2-yl]-N-(propan-2-yl)pyrimidine-5-sulfonamide], the melting point lay within 158 to 160 °C. Further, the IC50 in data set [1] fell in the range of 500 to 2000 nM.
Turning to `CC(C)NS(=O)(=O)c1cnc(-c2c(C#N)c3ccc(F)cc3n2C2CCCC2)nc1` [compound 141, 2-(3-cyano-1-cyclopentyl-6-fluoro-1H-indol-2-yl)-N-(propan-2-yl)pyrimidine-5-sulfonamide], the melting point was in the range of 216 to 217 °C. In data set [1], the half-inhibitory concentration (IC50) fell in the range of 500 to 2000 nM.
The matching figures for `C[C@H](NS(=O)(=O)c1ccc(-c2c(C#N)c3cc(F)ccc3n2C2CCC2)nc1)C1CC1` [compound 142, 6-(3-cyano-1-cyclobutyl-5-fluoro-1H-indol-2-yl)-N-[(1S)-1-cyclopropylethyl]pyridine-3-sulfonamide]: 128 to 130 °C and less than 500 nM.
On the same counts, the results for `C[C@H](NS(=O)(=O)c1ccc(-c2c(C#N)c3cc(F)ccc3n2C2CCCC2)nc1)C1CC1` [compound 143, 6-(3-cyano-1-cyclopentyl-5-fluoro-1H-indol-2-yl)-N-[(1S)-1-cyclopropylethyl]pyridine-3-sulfonamide] are 159 to 160 °C and less than 500 nM.
Take `C[C@H](NS(=O)(=O)c1ccc(-c2c(C#N)c3ccc(F)cc3n2C2CCC2)nc1)C1CC1` [compound 144, 6-(3-cyano-1-cyclobutyl-6-fluoro-1H-indol-2-yl)-N-[(1S)-1-cyclopropylethyl]pyridine-3-sulfonamide]: the melting point lay in the range of 136 to 138 °C. The IC50 in data set [1] is less than 500 nM.
`Cc1cc2c(cc1F)c(C#N)c(-c1ncc(S(=O)(=O)NC(CF)CF)cn1)n2C1CCC1` [compound 146, 2-(3-cyano-1-cyclobutyl-5-fluoro-6-methyl-1H-indol-2-yl)-N-(1,3-difluoropropan-2-yl)pyrimidine-5-sulfonamide] yielded a melting point of 243 to 249 °C. The IC50 in data set [1] was less than 500 nM.
On the same counts, the results for `N#Cc1c(-c2ccc(S(=O)(=O)NC(CF)CF)cn2)n(C2CC2)c2cc(C3CC3)ccc12` [compound 147, 6-(3-cyano-1,6-dicyclopropyl-1H-indol-2-yl)-N-(1,3-difluoropropan-2-yl)pyridine-3-sulfonamide] are 226 to 228 °C and less than 500 nM.
As for `N#Cc1c(-c2ncc(S(=O)(=O)NC(CF)CF)cn2)n(C2CCC2)c2cc(Cl)c(F)cc12` [compound 149, 2-(6-chloro-3-cyano-1-cyclobutyl-5-fluoro-1H-indol-2-yl)-N-(1,3-difluoropropan-2-yl)pyrimidine-5-sulfonamide], the melting point was > 245 °C (dec.). Also, the IC50 in data set [1] is less than 500 nM.
